The structures appear in SMILES notation.

This is an account of results in patent US7101878B1 (Agouron Pharmaceuticals, Inc., priority 1998, dated 2006).

One test has as its target T1, human GnRH receptor (Homo sapiens, UniProt P30968).
T1 construct: expressed in transfected cells; host or cells: HEK 293 (hGnRH-R/293, from Dr. Stuart Sealfon)
T1 sequence (P30968 1-328): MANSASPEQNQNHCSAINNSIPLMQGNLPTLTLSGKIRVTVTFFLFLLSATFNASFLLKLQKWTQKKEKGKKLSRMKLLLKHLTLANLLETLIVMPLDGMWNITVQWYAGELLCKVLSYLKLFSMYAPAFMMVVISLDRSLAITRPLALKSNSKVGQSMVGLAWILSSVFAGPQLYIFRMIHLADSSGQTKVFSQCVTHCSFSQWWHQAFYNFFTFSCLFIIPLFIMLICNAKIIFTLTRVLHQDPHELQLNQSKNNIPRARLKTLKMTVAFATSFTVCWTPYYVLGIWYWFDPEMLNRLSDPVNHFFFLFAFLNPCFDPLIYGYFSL
The experiment in a line: Radioligand binding, 125I-GnRH-A displacement, membranes of HEK 293 cells with human GnRH receptor. The note with it: 1 h, read-out: S%R 10 uM hGnRHR. The procedure, abridged:
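Bound tracer was separated by filtration through polyethyleneimine-soaked GF/C filters and counted by liquid scintillation. IC50 from curve fitting; other species were tested under the same conditions.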
`COc1cccc(OC)c1NC(=O)c1ccc(Cc2cc3c(cc2C)C(C)(C)CCC3(C)C)o1` [Compound 389]: the remaining activity at 10 µM came out at 3%.

The test is the same for the next values; noted with them: 1 h, substrate remaining; 1 uM compound; closer to zero = closer to 100% inhibition; read-out: S%R 1 uM hGnRHR.
Regarding `Cc1cc2c(cc1Cc1ccc(C(=O)NCc3cccnc3)o1)C(C)(C)CCC2(C)C` [Compound 400], the remaining activity at 1 µM was determined as 28%.
Same read-out and setting: the result for `Cc1cc2c(cc1Cc1ccc(C(=O)NCCOCCO)o1)C(C)(C)CCC2(C)C` [Compound 401] reads 32%; that for `Cc1cc2c(cc1Cc1ccc(C(=O)NCc3ccccc3)o1)C(C)(C)CCC2(C)C` [Compound 402], 18%; that for `Cc1cc2c(cc1Cc1ccc(C(=O)NC(c3ccccc3)C(O)c3ccccc3)o1)C(C)(C)CCC2(C)C` (centres unmarked) [Compound 403], 44%.
For the compound `COc1ccccc1CNC(=O)c1ccc(Cc2cc3c(cc2C)C(C)(C)CCC3(C)C)o1` [Compound 404], the remaining activity at 1 µM is 13%.
In the case of `Cc1cc2c(cc1Cc1ccc(C(=O)NCCc3ccccc3)o1)C(C)(C)CCC2(C)C` [Compound 405], the remaining activity at 1 µM was 40%.
As to `Cc1cc2c(cc1Cc1ccc(C(=O)NCCNc3ccccc3)o1)C(C)(C)CCC2(C)C` [Compound 406], the remaining activity at 1 µM is 30%.
On to `Cc1cc2c(cc1Cc1ccc(C(=O)NCc3ccco3)o1)C(C)(C)CCC2(C)C` [Compound 407], for which the remaining activity at 1 µM turned out to be 20%.
In the case of `Cc1cc2c(cc1Cc1ccc(C(=O)NCc3ccccc3F)o1)C(C)(C)CCC2(C)C` [Compound 408], the remaining activity at 1 µM came out at 16%.
For the compound `Cc1cc2c(cc1Cc1ccc(C(=O)NCc3ccc(Cl)cc3)o1)C(C)(C)CCC2(C)C` [Compound 409], the remaining activity at 1 µM was found to be 32%.
Still for that read-out and setting: in the case of `COc1cccc(CNC(=O)c2ccc(Cc3cc4c(cc3C)C(C)(C)CCC4(C)C)o2)c1OC` [Compound 410] it was 21%; in that of `COc1ccc(CNC(=O)c2ccc(Cc3cc4c(cc3C)C(C)(C)CCC4(C)C)o2)cc1OC` [Compound 411], 28%; in that of `CCOc1ccccc1CNC(=O)c1ccc(Cc2cc3c(cc2C)C(C)(C)CCC3(C)C)o1` [Compound 412], 49%.
Regarding `Cc1ccccc1CNC(=O)c1ccc(Cc2cc3c(cc2C)C(C)(C)CCC3(C)C)o1` [Compound 413], the remaining activity at 1 µM is 16%.
`COc1ccc(CNC(=O)c2ccc(Cc3cc4c(cc3C)C(C)(C)CCC4(C)C)o2)cc1` [Compound 414]: the remaining activity at 1 µM came out at 10%.
With `Cc1cc2c(cc1Cc1ccc(C(=O)NCc3cccs3)o1)C(C)(C)CCC2(C)C` [Compound 415], the remaining activity at 1 µM is 18%.
For `Cc1cc2c(cc1Cc1ccc(C(=O)NCc3cccc(Cl)c3Cl)o1)C(C)(C)CCC2(C)C` [Compound 416], the remaining activity at 1 µM is 34%.
With `Cc1cc2c(cc1Cc1ccc(C(=O)NCc3ccccc3Cl)o1)C(C)(C)CCC2(C)C` [Compound 417], the remaining activity at 1 µM came to 20%.
Consider `Cc1cc2c(cc1Cc1ccc(C(=O)NCCc3ccccc3Cl)o1)C(C)(C)CCC2(C)C` [Compound 418], for which the remaining activity at 1 µM is 42%.
On to `COc1ccccc1CCNC(=O)c1ccc(Cc2cc3c(cc2C)C(C)(C)CCC3(C)C)o1` [Compound 419], for which the remaining activity at 1 µM is 36%.
For `Cc1cc2c(cc1Cc1ccc(C(=O)NC(CO)Cc3ccccc3)o1)C(C)(C)CCC2(C)C` (centres unmarked) [Compound 420], the remaining activity at 1 µM stood at 28%.
The same measure, in the same setting: in the case of `Cc1cc2c(cc1Cc1ccc(C(=O)NCc3ccccc3Oc3ccccc3CO)o1)C(C)(C)CCC2(C)C` [Compound 421] it was 48%; in that of `Cc1cc2c(cc1Cc1ccc(C(=O)NCc3cccc4ccccc34)o1)C(C)(C)CCC2(C)C` [Compound 422], 34%; in that of `Cc1cc2c(cc1Cc1ccc(C(=O)NC(C)CCc3ccccc3)o1)C(C)(C)CCC2(C)C` (centres unmarked) [Compound 423], 49%.
Still for that read-out and setting: in the case of `Cc1cc2c(cc1Cc1ccc(C(=O)NCCCN3CCCC3=O)o1)C(C)(C)CCC2(C)C` [Compound 424] it was 31%.
Turning to `Cc1cc2c(cc1Cc1ccc(C(=O)NCc3ccc(Cl)cc3Cl)o1)C(C)(C)CCC2(C)C` [Compound 425], the remaining activity at 1 µM is 42%.
In the case of `Cc1cc2c(cc1Cc1ccc(C(=O)NCc3ccc(F)cc3)o1)C(C)(C)CCC2(C)C` [Compound 426], the remaining activity at 1 µM is 30%.

The test is the same for the next values; noted with them: 1 h, substrate remaining; 10 uM compound; closer to zero = closer to 100% inhibition; read-out: S%R 10 uM hGnRHR.
Take `Cc1cc2c(cc1Cc1ccc(C(=O)Nc3ccc4cn[nH]c4c3)o1)C(C)(C)CCC2(C)C` [Compound 365]: the remaining activity at 10 µM was determined as 47%.
As to `CSc1ccc(NC(=O)c2ccc(Cc3cc4c(cc3C)C(C)(C)CCC4(C)C)o2)cc1` [Compound 366], the remaining activity at 10 µM came to 37%.
Regarding `Cc1cc2c(cc1Cc1ccc(C(=O)Nc3ccc4c(c3)OCO4)o1)C(C)(C)CCC2(C)C` [Compound 367], the remaining activity at 10 µM was found to be 15%.
Regarding `Cc1cc2c(cc1Cc1ccc(C(=O)Nc3ccccc3C(=O)NCCCN3CCCC3=O)o1)C(C)(C)CCC2(C)C` [Compound 368], the remaining activity at 10 µM was 56%.
In the case of `Cc1cc2c(cc1Cc1ccc(C(=O)Nc3ncccc3O)o1)C(C)(C)CCC2(C)C` [Compound 369], the remaining activity at 10 µM turned out to be 11%.
On to `Cc1cc2c(cc1Cc1ccc(C(=O)Nc3cccc([N+](=O)[O-])c3)o1)C(C)(C)CCC2(C)C` [Compound 370], for which the remaining activity at 10 µM amounted to 37%.
On to `Cc1cc2c(cc1Cc1ccc(C(=O)Nc3ccc(O)c([N+](=O)[O-])c3)o1)C(C)(C)CCC2(C)C` [Compound 371], for which the remaining activity at 10 µM was 55%.
With `Cc1cc2c(cc1Cc1ccc(C(=O)Nc3cc(CO)ccc3C)o1)C(C)(C)CCC2(C)C` [Compound 372], the remaining activity at 10 µM came to 1%.
As to `Cc1cc2c(cc1Cc1ccc(C(=O)Nc3c(C)cccc3O)o1)C(C)(C)CCC2(C)C` [Compound 373], the remaining activity at 10 µM was 19%.
`COC(=O)c1ccc(NC(=O)c2ccc(Cc3cc4c(cc3C)C(C)(C)CCC4(C)C)o2)cc1OC` [Compound 374]: the remaining activity at 10 µM turned out to be 13%.
Consider `CCc1ccc(C)nc1NC(=O)c1ccc(Cc2cc3c(cc2C)C(C)(C)CCC3(C)C)o1` [Compound 375], for which the remaining activity at 10 µM turned out to be 16%.
Consider `Cc1cc2c(cc1Cc1ccc(C(=O)Nc3ccc(O)c(C)c3C)o1)C(C)(C)CCC2(C)C` [Compound 376], for which the remaining activity at 10 µM came out at 50%.
The same measure, in the same setting: in the case of `Cc1cc2c(cc1Cc1ccc(C(=O)Nc3ccc4c(=O)[nH][nH]c(=O)c4c3)o1)C(C)(C)CCC2(C)C` [Compound 377] it was 39%.
Still for that read-out and setting: the result for `COc1cccc(C)c1NC(=O)c1ccc(Cc2cc3c(cc2C)C(C)(C)CCC3(C)C)o1` [Compound 378] reads -4%; that for `Cc1cc2c(cc1Cc1ccc(C(=O)Nc3ncccc3C)o1)C(C)(C)CCC2(C)C` [Compound 379], 4%.
With `Cc1cc2c(cc1Cc1ccc(C(=O)Nc3ccc(O)c(Cl)c3)o1)C(C)(C)CCC2(C)C` [Compound 380], the remaining activity at 10 µM was 29%.
For `COc1ccc(NC(=O)c2ccc(Cc3cc4c(cc3C)C(C)(C)CCC4(C)C)o2)cc1F` [Compound 381], the remaining activity at 10 µM stood at 34%.
Take `Cc1cc2c(cc1Cc1ccc(C(=O)Nc3ccc4[nH]ncc4c3)o1)C(C)(C)CCC2(C)C` [Compound 383]: the remaining activity at 10 µM was determined as 7%.
As for `Cc1cc2c(cc1Cc1ccc(C(=O)Nc3ccccc3)o1)C(C)(C)CCC2(C)C` [Compound 384], the remaining activity at 10 µM amounted to 21%.
Take `COC(=O)c1cc(OC)c(OC)c(OO)c1NC(=O)c1ccc(Cc2cc3c(cc2C)C(C)(C)CCC3(C)C)o1` [Compound 386]: the remaining activity at 10 µM is 27%.
As for `Cc1cc2c(cc1Cc1ccc(C(=O)Nc3cccc4c(=O)[nH][nH]c(=O)c34)o1)C(C)(C)CCC2(C)C` [Compound 387], the remaining activity at 10 µM was 52%.
In the case of `Cc1cc2c(cc1Cc1ccc(C(=O)Nc3ccc(Br)c4ccccc34)o1)C(C)(C)CCC2(C)C` [Compound 388], the remaining activity at 10 µM came to 30%.
In the case of `COc1ccc(NC(=O)c2ccc(Cc3cc4c(cc3C)C(C)(C)CCC4(C)C)o2)c(Oc2ccc(Cl)cc2)n1` [Compound 391], the remaining activity at 10 µM turned out to be 48%.
As to `CC(=O)c1cccc(NC(=O)c2ccc(Cc3cc4c(cc3C)C(C)(C)CCC4(C)C)o2)c1` [Compound 392], the remaining activity at 10 µM turned out to be 0%.
For the compound `COC(=O)c1ccc(NC(=O)c2ccc(Cc3cc4c(cc3C)C(C)(C)CCC4(C)C)o2)c(O)c1` [Compound 393], the remaining activity at 10 µM was determined as 44%.
Same read-out and setting: in the case of `Cc1cc2c(cc1Cc1ccc(C(=O)Nc3c(C)cccc3C(C)C)o1)C(C)(C)CCC2(C)C` [Compound 394] it was 57%; in that of `Cc1cc2c(cc1Cc1ccc(C(=O)Nc3c(Cl)cc(Cl)cc3C(F)(F)F)o1)C(C)(C)CCC2(C)C` [Compound 395], 40%; in that of `CC(=O)c1ccc(NC(=O)c2ccc(Cc3cc4c(cc3C)C(C)(C)CCC4(C)C)o2)cc1` [Compound 396], 55%.
For `Cc1cc2c(cc1Cc1ccc(C(=O)Nc3c(C)cccc3C)o1)C(C)(C)CCC2(C)C` [Compound 397], the remaining activity at 10 µM was 43%.
On to `CCc1cccc(C)c1NC(=O)c1ccc(Cc2cc3c(cc2C)C(C)(C)CCC3(C)C)o1` [Compound 399], for which the remaining activity at 10 µM was 41%.

Staying with this test, now noted: substrate remaining; 10 uM compound; closer to zero = closer to 100% inhibition.
Take `Cc1cc2c(cc1Cc1ccc(C(=O)Nc3ccc4c(=O)[nH][nH]c(=O)c4c3)o1)C(C)(C)CCC2(C)C` [Compound 385]: the “S%R 10 uM hGnRHR” value is given as 41%.
